Data on 20 molecules can be found in US4369120A, “Refrigeration liquid with leak indicator and process of using same” (priority 1981, dated 1983).

Data set [1] in a line: Sealed tube test of stability of dyes in refrigerant/refrigeration oil with metal coupons. The following applies: for Stability, Mean Life: Table I, sealed tube data in R-12 at 350° F.; for stability in the sealed tube test (in words): 350° F., Table I dyes. The data set is classed as physicochemical. The protocol: By reference to Table I below it can be appreciated that such ortho substitution has a remarkably beneficial effect on the stability of the dyes in the accelerated sealed tube test used for evaluation. The first three dyes listed, embodying the principles of this invention, routinely withstand in excess of twenty days in the sealed tube test at 350° F. (176.7° C.), equivalent to many years of normal use in a refrigeration system.
The sealed tube test serves as a method of evaluating in an accelerated manner interactions of materials found in a refrigeration system.
Glass tubes and all metal test coupons are scrupulously cleaned. Test refrigerants are distilled to minimize moisture contamination. Moisture is removed from the refrigeration test oil "Suniso" 3GS by subjecting the oil to a vacuum with slight stirring and heating. Ratios of refrigerant/refrigerant oil range from 1:1 to 1:2 by weight.
Refrigerant oil and representative metal coupons of copper #10AWG wire, Swedish valve stock steel, and aluminum metal sheet are placed in a glass tube along with the subject test dye material (0.25-1.0% wt/wt) dissolved in the refrigerant oil. Like samples without the subject dye are analyzed as controls.
The tube and its contents are chilled in a liquid nitrogen bath while the refrigerant is condensed into the tube via a calibrated manometer. The tube is sealed under a vacuum of at least 0.1 torr.
Glass tubes and contents are subjected to uniform heating in a bored aluminum block placed in a temperature-programmed oven.
The oven temperatures used vary according to the test refrigerant, as indicated:
The test is run for one of the following time periods: 5, 14, 21, 30 or 60 days.
The tube contents may be evaluated by several methods:
of these methods, the visual examination is the most rapid and the only qualitative method. Any color change in the subject dye coloration is noted when compared to a control sample.
The quantitative methods involve analysis for decomposition products of chloride as hydrochloric acid or organic products by gas chromatography, infrared spectroscopy, or mass spectroscopy. However, visual inspection and gas chromatography are widely used, and they were selected as standardization procedures for evaluation of sealed tube contents.
R-12 is chemically one of the more reactive refrigerants; thus, short term tests with refrigeration liquids containing this refrigerant admixed with a mineral oil yield the most rapid results. R-22 and R-502 are also used but the decomposition products are more difficult to analyze by gas chromatography. Ultimately the test material must pass interactions involving any of these refrigerants. The visual method can be used empirically on a pass-fail basis. As verified experimentally, visual results are considered as valid as instrumental methods.

A short description of data set [2]: Solubility of dyes in refrigeration oils. As to conditions: Table I, Suniso 3GS refrigeration oil. As for the experimental part: Manufacturers of refrigeration equipment generally demand that any refrigeration liquid satisfactorily pass such a sealed tube test before they approve the liquid for use in their equipment. In addition, the solubility of the various dyes in oil and in refrigerant were determined.
Solubility of various dyes in various refrigeration oils was carefully determined according to the following standardized procedure. An excess of the subject dye was added to a given weight (e.g., 100 g) of refrigerant oil. The mixture was stirred for one-half hour with mild heating, whereupon it was cooled to room temperature (about 21° C.) and transferred to a centrifuge tube. The mixture was centrifuged approximately 15 minutes at 1000 rpm. A sample of the supernatant liquid was decanted (1.00 g±0.01 g) and diluted to 100 ml volume with methylene chloride. Aliquot portions were taken and read against the principal absorption peaks by visible light spectroscopy. Wt/wt percentage concentrations were then calculated from proper standard curves.

Molecules are shown by their SMILES.

`CCCCc1ccc(Nc2ccc(Nc3ccc(CCCC)cc3)c3c2C(=O)c2ccccc2C3=O)cc1` [Dye No. 4-1, 1,4-Bis(4-n-butylanilino)]: the “Stability, Mean Life” value in data set [1] is 9.5 days. The “Oil Sol. In 3GS” value in data set [2] is recorded as under 1.0%.
For `O=C1c2ccccc2C(=O)c2c(Nc3ccc(C4CCCCC4)cc3)ccc(Nc3ccc(C4CCCCC4)cc3)c21` [Dye No. 5-5, 1,4-Bis(4-cyclohexylanilino)] the same measures were 9.7 days and 0.1%.
For the molecule `CC(C)(C)c1ccc(Nc2ccc(Nc3ccc(C(C)(C)C)cc3)c3c2C(=O)c2ccccc2C3=O)cc1` [Dye No. 6-21, 1,4-Bis(4-t-butylanilino)], the “Stability, Mean Life” value in data set [1] amounted to 8.7 days. Besides, the “Oil Sol. In 3GS” value in data set [2] is recorded as 1.0%.
For `CCOc1ccc(Nc2ccc(Nc3ccc(OCC)cc3)c3c2C(=O)c2ccccc2C3=O)cc1` [Dye No. 7-3, 1,4-Bis(4-ethoxyanilino)] the same measures were 8.5 days and under 1.0%.
`CCCCOc1ccc(Nc2ccc(Nc3ccc(OCCCC)cc3)c3c2C(=O)c2ccccc2C3=O)cc1` [Dye No. 8-2, 1,4-Bis(4-n-butoxyanilino)]: in data set [1], the “Stability, Mean Life” value is on record as 8.6 days. Also, the “Oil Sol. In 3GS” value in data set [2] came out at 0.02%.
On the same counts, the results for `O=C1c2ccccc2C(=O)c2c(NCCc3ccccc3)ccc(NCCc3ccccc3)c21` [Dye No. 9-8, 1,4-Bis(β-phenethylamino)] are 4.4 days and 0.1%.
`O=C1c2ccccc2C(=O)c2c(NCc3ccccc3)ccc(NCc3ccccc3)c21` [Dye No. 10-19, 1,4-Bis(benzylamino)]: the “Stability, Mean Life” value in data set [1] stood at 4.5 days. Besides, the “Oil Sol. In 3GS” value in data set [2] is recorded as under 0.25%.
For the molecule `CC(Nc1ccc(NC(C)c2ccccc2)c2c1C(=O)c1ccccc1C2=O)c1ccccc1` (stereo not drawn) [Dye No. 11-17, 1,4-Bis(α-methylbenzylamino)], in data set [1], the “Stability, Mean Life” value is reported as 3.5 days. For the same molecule, the “Oil Sol. In 3GS” value in data set [2] is reported as 1.0%.
For `O=C1c2ccccc2C(=O)c2c(NC(c3ccccc3)c3ccccc3)ccc(NC(c3ccccc3)c3ccccc3)c21` [Dye No. 12-20, 1,4-Bis(diphenylmethylamino)] the same measures were 2.0 days and under 0.05%.
On the same counts, the results for `CCCCCCCCNc1ccc(NCCCCCCCC)c2c1C(=O)c1ccccc1C2=O` [Dye No. 13-27, 1,4-Bis(n-octylamino)] are 4.4 days and 0.5%.
With `CCCCCCCCCCCCNc1ccc(NCCCCCCCCCCCC)c2c1C(=O)c1ccccc1C2=O` [Dye No. 14-32, 1,4-Bis(n-dodecylamino)], the “Stability, Mean Life” value in data set [1] amounted to 2.3 days. Besides, the “Oil Sol. In 3GS” value in data set [2] is 0.5%.
With `CC(C)(C)CNc1ccc(NCC(C)(C)C)c2c1C(=O)c1ccccc1C2=O` [Dye No. 15-13, 1,4-Bis(neopentylamino)], in data set [1], the “stability in the sealed tube test (in words)” value (from here on “stability … (in words)”) is “very unstable” and the “Stability, Mean Life” value was 3.4 days. Also, the “Oil Sol. In 3GS” value in data set [2] is reported as under 1.0%.
On to `CN(c1ccccc1)c1ccc(N(C)c2ccccc2)c2c1C(=O)c1ccccc1C2=O` [Dye No. 16-10, 1,4-Bis(N--methylanilino)], for which, in data set [1], the “stability … (in words)” value was “very unstable” and the “Stability, Mean Life” value was determined as 7.0 days. Moreover, in data set [2], the “Oil Sol. In 3GS” value was 0.1%.
On the same counts, the results for `CCN(c1ccccc1)c1ccc(N(CC)c2ccccc2)c2c1C(=O)c1ccccc1C2=O` [Dye No. 17-14, 1,4-Bis(N--ethylanilino)] are “very unstable”, 4.5 days and 1.0%.
As to `CCCCc1ccc(N(C)c2ccc(N(C)c3ccc(CCCC)cc3)c3c2C(=O)c2ccccc2C3=O)cc1` [Dye No. 18-6, 1,4-Bis(N-methyl-4-n-butylanilino)anthraquinone], in data set [1], the “stability … (in words)” value is “very unstable” and the “Stability, Mean Life” value was found to be 4.3 days. The “Oil Sol. In 3GS” value in data set [2] amounted to 0.1%.
On the same counts, the results for `CCOc1ccc(N(C)c2ccc(N(C)c3ccc(OCC)cc3)c3c2C(=O)c2ccccc2C3=O)cc1` [Dye No. 19-9, 1,4-Bis(N--methyl-4-ethoxyanilino)] are “very unstable”, 6.0 days and 0.1%.
Consider `CCCCOc1ccc(N(C)c2ccc(N(C)c3ccc(OCCCC)cc3)c3c2C(=O)c2ccccc2C3=O)cc1` [Dye No. 20-12, 1,4-Bis(N--methyl-4-n-butoxyanilino)], for which, in data set [1], the “stability … (in words)” value is given as “very unstable” and the “Stability, Mean Life” value came out at 4.0 days. For the same molecule, the “Oil Sol. In 3GS” value in data set [2] is recorded as 0.1%.
Regarding `CCCCc1ccc(Nc2ccc(Nc3ccc(C)cc3)c3c2C(=O)c2ccccc2C3=O)cc1` [Dye No. 21-11, 1-(4-n-butylanilino)-4-(p-toluidino)], the “Stability, Mean Life” value in data set [1] stood at 7.7 days. For the same molecule, the “Oil Sol. In 3GS” value in data set [2] stood at 0.1%.
For the molecule `CCCCc1ccc(Nc2cc(C)c(Nc3ccc(CCCC)cc3)c3c2C(=O)c2ccccc2C3=O)cc1` [Dye No. 22-16, 1,4-Bis(4-n-butylanilino)-2-methyl], in data set [1], the “stability … (in words)” value is given as “very unstable” and the “Stability, Mean Life” value is given as 3.0 days. Besides, the “Oil Sol. In 3GS” value in data set [2] is on record as 1.0%.
For `O=C1c2ccccc2C(=O)c2c(Nc3ccccc3C(F)(F)F)ccc(Nc3ccccc3C(F)(F)F)c21` [Dye No. 23-24, 1,4-Bis(2-trifluoro-methylanilino)] the same measures were “very unstable”, 6.5 days and 0.5%.
